Experimental data taken from patent US20060148714A1, “Therapeutic peptide-based constructs” (priority 1999, published 2006).
Marks after values point to notes of the source that are not given here. Where a SMILES comes first, the peptide text is derived from it. Where no end group is shown, it is not given here. [ ]: non-standard residue; d: D form. The star is where a group is joined. Benzoyl(4-Ph) = O=C(c1ccc(-c2ccccc2)cc1)*; Benzoyl(2-Ph) = O=C(c1ccccc1-c1ccccc1)*; d1Nal = N[C@H](Cc1cccc2ccccc12)C(=O)O; Aib = CC(C)(N)C(=O)O

Legend:
[1] = test system: Factor Xa neutralization by ATIII/heparin complexes; experiment: Chromostrate heparin anti-Factor Xa assay (heparin neutralization); format: biochemical; conditions: absorbance at 405 nm
Protocol: A Chromostrate™ assay was used to determine the effect of peptide-based constructs, including derivatized constructs, and the effect protamine sulfate (as a positive control) on Factor Xa neutralization by ATIII/heparin complexes. The assay was conducted using a Chromostrate™ heparin anti-Factor Xa assay kit (Organon Teknika Corp., Durham, N.C.). Heparin concentration was varied so that a heparin standard curve was generated. The assay measured the potentiating effect of heparin on anti-Xa activity in vitro. Solution containing heparin is incubated in the presence of ATIII with an excess of Factor Xa, forming an ATIII-Heparin-Xa complex. The remaining Xa catalyzes the release of p-nitroaniline (pNA) from the chromogenic substrate. The release of p-nitroaniline is measured at 405 nm. The absorbance obtained in inversely porportional to the concentration of heparin in the sample.
Reagents for the assay are prepared as follows. Heparin, peptide-based constructs and protamine sulfate stocks are made in saline. Stock solutions are approximately 1 mg/mL=1 μg/μL. Factor Xa reagent and substrate reagent are reconstituted with 2.0 mL purified water. Antithrombin III (ATIII) reagent is reconstituted with 1.0 mL purified water. The assay is performed in 96 well microtiter plates. Assay components are added to the microtiter wells as follows: 12.5 μl of heparin (from 0 to 10 U/mL), 25 μl of construct or protamine sulfate, 12.5 μL of ATIII (0.5 PEU/mL), 25 μL of bovine Factor Xa (14 nKat/mL), 25 μL substrate (3 μmoles/mL). The reaction is allowed to proceed for 20 minutes and then 25 μL of 0.1 M acetic acid is added. The color reaction is quantitated on a microplate reader at 405 nm. Constructs that neutralize heparin show an increase in the absorbance at 405 nm. Protamine is used as a positive control and its activity is designated as 100%. The percent (%) heparin neutralization for each peptide construct is calculated relative to the neutralization by protamine (100%), and shown in Table IV.

[2] = test system: E. coli (J5 and 0111 B4), Staphylococcus aureus and Candida albicans; experiment: Broth and/or radial diffusion antimicrobial assays; format: cell-based
Excerpt: Assays useful for testing a variety of biological activities of BPI protein products, including BPI-derived peptides, are described in co-owned U.S. Pat. Nos. 5,733,872; 5,763,567; 5,652,332; and 5,856,438 and corresponding PCT Publication Nos. WO 94/20532 (PCT/US94/02465) and WO 95/19372 (PCT/US94/10427) and U.S. Pat. No. 5,858,974 and corresponding PCT Publications Nos. WO 96/08509 (PCT/US95/09262) and WO 97/04008 (PCT/US96/03845), incorporated herein by reference. These activities include antimicrobial (including antibacterial and antifungal), LPS binding, LPS neutralization and additional assays of heparin binding as well as heparin neutralization.

1-naphthylacetyl-k-l-f-r-(naph-a)-q-a-k ({1‑naphthylacetyl}-[dK][dL][dF][dR][dNal][dQ][dA][dK]; not fully specified; printed as 1-naphthylacetyl-k-l-f-r-(naph-a)-q-a-k) [XMP.671]
Assay A: percent heparin neutralization relative to protamine (100%) [1]: 32% | Assay B: percent heparin neutralization relative to protamine (100%) [1]: 15%

4-biphenylcarbonyl-k-l-f-k-(biphenyl-a)-q-a-k [XMP.769]
Assay A: percent heparin neutralization relative to protamine (100%) [1]: 64% | Assay B: percent heparin neutralization relative to protamine (100%) [1]: 46%

4-biphenylcarbonyl-k-l-f-k-(naph-a)-q-a-k ({Benzoyl(4-Ph)}-[dK][dL][dF][dK][dNal][dQ][dA][dK]; not fully specified; printed as 4-biphenylcarbonyl-k-l-f-k-(naph-a)-q-a-k) [XMP.767]
antimicrobial activity [2]: highest activities | Assay A: percent heparin neutralization relative to protamine (100%) [1]: 63%* | Assay B: percent heparin neutralization relative to protamine (100%) [1]: 58%

4-biphenylcarbonyl-k-l-f-r-(biphenyl-a)-q-a-k [XMP.768]
Assay A: percent heparin neutralization relative to protamine (100%) [1]: 34% | Assay B: percent heparin neutralization relative to protamine (100%) [1]: 10%

4-biphenylcarbonyl-k-l-f-r-(naph-a)-q-a-k ({Benzoyl(4-Ph)}-[dK][dL][dF][dR][dNal][dQ][dA][dK]; not fully specified; printed as 4-biphenylcarbonyl-k-l-f-r-(naph-a)-q-a-k) [XMP.664]
antimicrobial activity [2]: highest activities | Assay A: percent heparin neutralization relative to protamine (100%) [1]: 50% | Assay B: percent heparin neutralization relative to protamine (100%) [1]: 16%

CC(C)C[C@@H](NC(=O)[C@@H](CCCCN)NC(=O)c1ccccc1-c1ccccc1)C(=O)N[C@H](Cc1ccccc1)C(=O)N[C@H](CCCNC(=N)N)C(=O)N[C@H](Cc1cccc2ccccc12)C(=O)N[C@H](CCC(N)=O)C(=O)N[C@H](C)C(=O)N[C@H](CCCCN)C(N)=O [XMP.661, 2-biphenylcarbonyl-k-l-f-r-(naph-a)-q-a-k] ({Benzoyl(2-Ph)}-[dK][dL][dF][dR][d1Nal][dQ][dA][dK]-NH2)
Assay A: percent heparin neutralization relative to protamine (100%) [1]: 30% | Assay B: percent heparin neutralization relative to protamine (100%) [1]: 9%

k-(aminoisobutyric acid)-f-r-(naph-a)-q-a-k-(naph-a) ([dK][Aib][dF][dR]A[dQ][dA][dK]A; not fully specified (residues 5, 9)) [XMP.778]
antimicrobial activity [2]: highest antimicrobial activities | Assay A: percent heparin neutralization relative to protamine (100%) [1]: 54% | Assay B: percent heparin neutralization relative to protamine (100%) [1]: 49%

k-a-f-k-(naph-a)-q-a-k-(naph-a)-k-G ([dK][dA][dF][dK][dNal][dQ][dA][dK][dNal][dK]G; not fully specified; printed as k-a-f-k-(naph-a)-q-a-k-(naph-a)-k-G) [XMP.764]
antimicrobial activity [2]: highest antimicrobial activities | Assay A: percent heparin neutralization relative to protamine (100%) [1]: 75% | Assay B: percent heparin neutralization relative to protamine (100%) [1]: 60%

k-a-f-r-(naph-a)-q-a-k-(naph-a) ([dK][dA][dF][dR][dNal][dQ][dA][dK][dNal]; not fully specified; printed as k-a-f-r-(naph-a)-q-a-k-(naph-a)) [XMP.760]
antimicrobial activity [2]: highest antimicrobial activities | Assay A: percent heparin neutralization relative to protamine (100%) [1]: 53% | Assay B: percent heparin neutralization relative to protamine (100%) [1]: 44%

k-l-f-k-(biphenyl-a)-q-a-k-(biphenyl-a)-k-G [XMP.728]
Assay A: percent heparin neutralization relative to protamine (100%) [1]: 106% | Assay B: percent heparin neutralization relative to protamine (100%) [1]: 87%

k-l-f-r-(biphenyl-A)-q-a-k [XMP.685]
Assay A: percent heparin neutralization relative to protamine (100%) [1]: 3.4% | Assay B: percent heparin neutralization relative to protamine (100%) [1]: 0.2%

k-l-f-r-(biphenyl-a)-q-a-k [XMP.725]
Assay A: percent heparin neutralization relative to protamine (100%) [1]: 3.8% | Assay B: percent heparin neutralization relative to protamine (100%) [1]: 1.0%
